Data as given in patent publication US20220323379A1, “P62 LIGAND COMPOUND AND ER-PHAGY-PROMOTING USE THEREOF” (PROTECH, INC., priority 2019, published 2022).

Columns and labels:
[1] = biological target: T1, p62 (Homo sapiens, UniProt Q13501); assay: In vitro p62 oligomerization assay; format: biochemical; settings: 2 h; for oligomerization and aggregation of p62: p62-ZZ ligands 1 mM, p62-myc/his cell lysate, FIG. 5B; for p62 oligomerization: dipeptide 50 mM, FIG. 2B
T1 construct: PCR amplification of a full-length human p62 cDNA fragment; expressed in transfected cells; unpurified lysate supernatant
Description: FIG. 2B illustrates the in vitro p62 oligomerization assay results in HEK293T cells cultured with Arg-Ala or Ala-Arg dipeptide (50 mM, 2 hours),
FIG. 5B illustrates the in vitro p62 oligomerization assay results in HEK293T cells incubated with the p62-ZZ ligands (1 mM, 2 h) illustrated in FIG. 5A,
HEK293 cells were transiently transfected with a plasmid encoding p62-myc/his fusion proteins (Reference Example 2), resuspended in a lysis buffer [50 mM Hepes (pH 7.4), 0.15 M KCl, 0.1% Nonidet P-40), 10% glycerol, and a mixture of protease inhibitors and phosphatase inhibitor (Abcam)] and lysed by 10 cycles of freezing and thawing, followed by centrifugation at 13,000×g for 20 min at 4° C. The protein concentration in the supernatant was determined using a BCA assay (Thermo Fisher Scientific). A total of 1 μg of protein was mixed with 50 mM of the Arg-Ala or Ala-Arg dipeptide (Anygen) or 1000 μM of p62-ZZ ligands in the presence of 100 μM bestatin (Enzo) at room temperature for 2 h. Next, a non-reducing 4×LDS sample buffer was added to each sample, heated at 95° C. for 10 min, and resolved using 4-20% gradient SDS-PAGE (Bio-Rad). Immunoblotting analysis was carried out to monitor the conversion of p62 monomers into oligomers or aggregates using an anti-myc antibody.

[2] = test system: TRIM13; assay: Immunoblotting of ER protein in tannic acid-treated cells; format: cell-based, human; settings: HeLa, tannic acid 30 μM 24 h; FIG. 8E
Description: FIG. 8E illustrates the immunoblotting results of ER protein in HeLa cells treated with tannic acid (30 μM, 24 h),
Cell pellets were washed with phosphate-buffered saline (PBS) and lysed in an SDS-based sample buffer (277.8 mM Tris-HCl, pH 6.8, 4.4% LDS, 44.4% (v/v) glycerol) with beta-mercaptoethanol. Alternatively, cell pellets or protein supernatants were lysed in a 5× Laemmli sample buffer (SDS-based sample buffer). Using SDS-PAGE, whole cell lysates were separated and transferred onto polyvinylidene difluoride membranes at 100 V for 2 h at 4° C. Subsequently, the membrane was blocked with 4% skim milk in PBS solution for 30 min at room temperature and incubated overnight with primary antibodies (see Reference Example 4), followed by incubation with host-specific HRP-conjugated secondary antibodies (Jackson laboratory) (1:10000 dilution). For signal detection, a mixture of ECL solution (Thermo Fisher Scientific) was applied onto the membrane and captured using X-ray films.

[3] = test system: HeLa cells; assay: ER expansion visualization by KDEL immunostaining; format: cell-based, human; settings: tannic acid 30 μM 24 h with YTK1105 2.5 μM 5 h or rapamycin 2 μM 18 h, FIGS. 5H, 5I
Description: FIG. 5H illustrates the immunostaining results of KDEL signals in HeLa cells treated with or without tannic acid (30 μM, 24 h) and with YTK1105 (2.5 μM, 5 h) or rapamycin (2 μM, 18 h) (scale bar, 10 μm),
To observe cellular localization of proteins, cells were cultured on cover slips coated with poly-L-lysine (Sigma). The cells were fixed with 4% paraformaldehyde in PBS (pH 7.4) for 15 min at room temperature and washed three times with PBS for 5 min. The cells were permeabilized with 0.5% Triton X-100 in PBS solution for 15 min and washed three times with PBS for 5 min. The cells were blocked with 2% BSA in PBS solution for 1 h at room temperature. After blocking, the cells were incubated overnight at 4° C. with a primary antibody diluted in 2% BSA/PBS solution. […] Confocal images were taken by a laser scanning confocal microscope 510 Meta (Zeiss) and analyzed by Zeiss LSM Image Browser (ver. 4.2.0.121).
Using confocal microscopy of cells analyzed by immunocytochemistry, ER expansion was visualized by considered when KDEL- or calnexin-labelled ER occupied more than 80% of cell area. Furthermore, the ER area was calculated by ImageJ (NIH, Bethesda, v1.52) and the background threshold was manually defined and set for all images. The ER area was calculated and marked from the total cell area as a fraction after borders of each cell were set.

[4] = biological target: T2, TRIM13-p62 complex (Homo sapiens, UniProt Q13501); assay: Co-IP with autophagy flux analysis using TRIM13 pulldown; format: cell-based; settings: HEK293T p62-myc + TRIM13-flag, tannic acid 30 μM 24 h, FIG. 4I
T2 construct: PCR amplification of a full-length human p62 cDNA fragment; expressed in transfected cells; host or cells: HEK293T
Description: FIG. 4I illustrates the Co-IP assay results in HEK293T cells treated with HCQ (10 μM, 24 h), tannic acid (30 μM, 24 h), or both, and co-transfected (24 h) with p62-myc and TRIM13-flag,
FIG. 5K illustrates the Co-IP assay results in HEK293T cells co-transfected with p62-myc and TRIM13-flag (24 h) or transfected with negative control empty vector (EV) and treated with HCQ (10 μM, 24 h), YOK1104 (2.5 μM, 4 h), or both, and
To test protein interaction, co-immunoprecipitation assays were performed. For exogenous co-IP, HEK293T cells were transfected with recombinant p62, BiP, TRIM13, reticulophagy regulator 1 (FAM134B), reticulon 3 (RTN3) or ATZ (Z variant E342K) using Lipofectamine 2000. The cell pellets were scraped and pelleted by centrifugation, resuspended and lysed in an immunoprecipitation buffer (IP buffer) [50 mM Tris-HCl pH 7.5, 150 mM NaCl, 0.5% Triton X-100, 1 mM EDTA, 1 mM phenylmethylsulfonyl fluoride (PMSF; Roche) and protease inhibitor cocktail (Sigma)] on a rotor at 4° C. for 30 min. Next, the supernatant and remaining pellets were passed through a 26-gauge 1 mL syringe 15 times and centrifuged at 13,000 g at 4° C. and collected for the supernatant, to which normal mouse IgG (Santa Cruz) and Protein A/G-Plus agarose beads (Santa Cruz) were added to preclear the lysate on a rotor at 4° C. overnight. The cell lysate was then incubated with M2 FLAG-affinity Gel agarose beads (Sigma) on a rotor at 4° C. for 3 h. The gel beads were washed four times with IP buffer, resuspended in 2× Laemmli Sample Buffer, separated by SDS-PAGE and analyzed by immunoblotting with specified antibodies.

[5] = test system: TRIM13; assay: In vivo oligomerization assay of TRIM13-flag (non-reducing SDS-PAGE); format: cell-based, human; settings: HEK293T TRIM13-flag, tannic acid 30 μM 24 h, HCQ 10 μM 24 h; FIGS. 4H, 9L
Description: FIG. 4H illustrates the in vivo oligomerization assay results of TRIM13-flag in HEK293T cells treated with HCQ (10 μM, 24 h), tannic acid (30 μM, 24 h), or both,
FIG. 5L illustrates the In vivo oligomerization assay results of TRIM13-flag in HEK293T cells treated with MG132 (2 μM, 24 h) and with or without YOK1104 (2.5 μM, 4 h).
HEK293T cells were transfected with TRIM13-flag using Lipofectamine 2000 and treated with hydroxychloroquine (Sigma) for 24 h. To lyse the cells, the cells were subjected to a cycle of freezing/thawing and centrifuged at 13,000 g for 10 min after 30 min incubation on ice for supernatant collection. Protein concentration was measured using the Pierce BCA Protein Assay Kit (Thermo Fisher Scientific). Next, a non-reducing 4×LDS sample buffer was added to the sample lysate and followed by boiling at 100° C. for 10 min. The samples were loaded on a 3% stacking and 8% separating SDS-PAGE. Immunoblotting assays were performed using an anti-Flag antibody (Sigma) to visualize the oligomeric complexes of TRIM13.

[6] = test system: HeLa cells; assay: Immunocytochemistry co-localization analysis of ER markers (calnexin, KDEL) with p62 and LC3; format: cell-based, human; settings: tannic acid 30 μM 24 h, HCQ 10 μM 24 h
Description: FIG. 2C is a fluorescence image illustrating the co-localization analysis results of p62 and calnexin in HeLa cells treated with HCQ (10 μM, 24 h), tannic acid (30 μM, 24 h) or both (scale bar, 10 μm),
FIG. 2E is a fluorescence image illustrating the co-localization analysis results of KDEL and LC3 in HeLa cells treated with HCQ (10 μM, 24 h), tannic acid (30 μM, 24 h) or both (scale bar, 10 μm),
FIG. 5C is a fluorescence image illustrating the co-localization analysis results of calnexin, p62 and LC3-GFP puncta structures in HeLa cells transfected with LC3-GFP and treated with YTK1105 (2.5 μM, 9 h) (scale bar, 10 μm),
FIG. 11E illustrates the co-localization analysis results of p62, KDEL and LC3-GFP in HeLa cells transiently transfected with LC3-GFP and treated with YTK1105 (2.5 μM, 5 h) (scale bar, 10 μm), […]
To observe cellular localization of proteins, cells were cultured on cover slips coated with poly-L-lysine (Sigma). […] Confocal images were taken by a laser scanning confocal microscope 510 Meta (Zeiss) and analyzed by Zeiss LSM Image Browser (ver. 4.2.0.121).
Quantification results are expressed as the mean+/−S.D. value of three independent test results. […] The P-values were determined using ANOVA with two-tailed student's t-test (degree of freedom=n−1) or Prism 6 software (GraphPad). The statistical significance was determined as values of p<0.05 (***p<0.001; **p<0.01; *p<0.05).

O=Cc1ccc(OCc2ccccc2)c(OCc2ccccc2)c1 [compound 1101, 3,4-bis(benzyloxy)benzaldehyde]
oligomerization and aggregation of p62 [1]: negative controls

Ala-Arg
p62 oligomerization [1]: did not induce p62 oligomerization

COC(=O)CNC[C@@H](O)COc1ccc(OCc2ccccc2)c(OCc2ccccc2)c1 [YOK-G-1104, methyl (R)-(3-(3,4-bis(benzyloxy)phenoxy)-2-hydroxypropyl)glycinate]
oligomerization and aggregation of p62 [1]: negative controls

Arg-Ala
p62 oligomerization [1]: induced p62 oligomerization

O=C(OC[C@H]1O[C@@H](OC(=O)c2cc(O)c(O)c(OC(=O)c3cc(O)c(O)c(O)c3)c2)[C@H](OC(=O)c2cc(O)c(O)c(OC(=O)c3cc(O)c(O)c(O)c3)c2)[C@@H](OC(=O)c2cc(O)c(O)c(OC(=O)c3cc(O)c(O)c(O)c3)c2)[C@@H]1OC(=O)c1cc(O)c(O)c(OC(=O)c2cc(O)c(O)c(O)c2)c1)c1cc(O)c(O)c(OC(=O)c2cc(O)c(O)c(O)c2)c1 [tannic acid]
TRIM13 protein level (autophagic degradation) [2]: stabilized | ER morphology (swelling), KDEL signals [3]: the ER spontaneously swelled into abnormal morphology | turnover of TRIM13 and its complex with p62 ([4]; HCQ 10 μM 24 h): became metabolically stabilized | binding of p62 to TRIM13 [4]: p62 normally bound to TRIM13 | oligomeric status of TRIM13 [5]: TRIM13 lost its oligomeric status, leading to the uncontrolled formation of aggregates | localization of p62 puncta to calnexin signals (targeting of p62 to the ER) ([6]; FIGS. 2C, 2D): p62 punctate signals were delocalized from calnexin signals | autophagic targeting of KDEL+ proteins (KDEL-LC3 co-localization) ([6]; FIGS. 2E, 2F): abolished
